Measurements as given in US4735953A, “Pharmaceutical preparation for learning stimulation and memory improvement” (priority 1986, dated 1988).

What was measured:
Solubility = format: physicochemical
dogs = test: Chronic toxicity, dogs; format: in vivo, dog; details: hypodermal, 6 months
Text: The chronic toxicity of the preparation was studied on three species of animals (rats, dogs, rabbits). In chronic tests on the above-mentioned animals the effect of a long-time hypodermal administration of the preparation according to the present invention on the general state and mass of animals, hemogram, cardio-vascular system, breathing central nervous system, functional state of kidneys, liver, thyroid gland was studied. […] The doses of the preparation employed in the experiments surpassed the required dose for a human being (per kilogram of bodymass) by 5-10 times.

patients = test: Clinical study on patients with memory disorders, compared to pyracetam; format: in vivo, human
Text: The preparation according to the present invention was studied in clinics on 130 patients.
As regards diagnosis and sex the patients were distributed as follows:
skull-brain traumata with memory disturbance: 75 patients (52 men and 23 women)
Alzheimer's disease: 15 patients (3 men and 12 women)
Pick's disease: 5 patients (5 men)
Senile dementia: 15 patients (4 men and 11 women)
Vascular dementia (cerabral atero-sclerosis, hypertonic disease): 20 patients (7 men and 13 women)
In the group of patients with skull-brain trauma the patient's age varied from 17 to 60 years, in the other patients--from 52 to 75 years.
In addition to clinico-psychopathological methods of investigation, all the patients were subjected to neuropsychological studies during which specific tasks were offered them to solve. In doing so, the response was assessed against a 4-points scale: 3--maximally pronounced disorder, full or substantially full incapability to deal with the task set; 2--a medium degree of manifestation of the deficiency, solving the task with the experimentator's assistance; 1--minor errors, independent correction of mistakes; 0--lack of disturbances.
The treatment course duration is 30-60 days. In the case of an acute skull-brain trauma (65 patients) the treatment started 15-20 days after the moment of trauma and lasted for 20-30 days.
It is known that the function of memory has a complex brain organization and different zones of brains take part in its regulation. During the studies a multi-faceted assessment of the memory function was carried out; there were assessed: (1) mnestic component of the environmental orientation of a patient; (2) involuntary memory for current events; (3) intentional exo-experimental memory; (4) volume and soundness of audio-speaking memory; (5) volume and soundness of visual memory; (6) operative memory; (7) memory for knowledge acquired before the disease.

rats = test: Teaching of rats in a T-shaped labyrinth with positive meal support; format: in vivo, rat
Text: In the second series of experiments the preparation according to the present invention was studied for the effect on teaching of rats in a T-shaped labyrinth in one compartment of which a feedbox with meal was provided. Rats deprived of meals during the day were placed into the starting compartment of the labyrinth and taught to find the feed-box in the proper compartment of the labyrinth. The response time, the number of unrealized reactions, the latent period, and the number of errors were noted.
Similar results were obtained in experiments in a T-shaped labyrinth with the use of a positive meal support.

mice = test: Acute toxicity, mice; format: in vivo, mouse; details: single intraperitoneal
Description: The preparation according to the present invention was also tested for acute and chronic toxicity.

## Cl.Nc1c2c(nc3c1CCC3)CCCC2.O [preparation of the invention, 9-amino-2,3,5,6,7,8-hexahydro-1H-cyclopenta(b)quinoline monohydrate hydrochloride]
Solubility; 95% ethanol
  solubility in 95% ethanol: less soluble in a 95% ethanol
Solubility; acetone
  solubility in acetone: substantially insoluble
Solubility; chloroform
  solubility in chloroform: substantially insoluble
Solubility; diluted solutions of acids
  solubility in diluted solutions of acids: readily soluble in diluted solutions of acids
Solubility; ether
  solubility in ether: substantially insoluble
Solubility; water
  solubility in water: well soluble in water
dogs
  chronic toxicity: no toxic effect
patients; Alzheimer's and Pick's diseases
  therapeutic effect: An essential amelioration
patients; acute skull-brain trauma
  recovery of psychic functions: faster and more complete recovery of psychic functions
patients; consequences of a vascular injury of brains
  therapeutic effect, memory: an improvement of memory was noted along with a higher working capacity
patients; environmental orientation, past knowledge, involuntary, voluntary exo-experimental and operative memory
  effect on memory parameters: more complete and faster recovering effect
patients; experimental and clinical studies
  effect on the functional symmetry of the brain and activity of the dominating hemisphere: enhanced activity of the dominating hemisphere
patients; patients
  character of recovery (in words): constructive and environmental praxis recovered most efficiently along with reading ability and memory
  recovery of visual versus audio memory (in words): visual memory recovered faster than the audio memory
patients; patients, 5 to 30 mg a day subcutaneous, 30-60 days
  restoration of psychic functions as compared to pyracetam: faster and more complete restoration of psychic functions
rats; rats, 5 mg/kg, by the fourth day of teaching, control 60-70%
  number of response failures as compared to the initial level on the first day of teaching: 40%
rats; rats, 1, 5 and 10 mg/kg
  number of response failures (in words): reduced number of response failures
mice
  LD50: 44 mg/kg
